Legend:
[1] = system: intact mouse ventricular cardiomyocytes; assay: Ca2+ transients in intact ventricular cardiomyocytes paced at 1 Hz; format: cell-based
Experimental: Mouse ventricular cardiomyocytes were isolated enzymatically from hearts of male C57BL/6J mouse (10–12 weeks old, Jackson Laboratory) as previously described with minor modifications ([66]). Briefly, mice were injected with heparin (500 U/kg body weight) and anesthetized with isoflurane (2 to 5%) to a verified deep surgical plane, whereupon the heart was excised, resulting in euthanasia by exsanguination. Hearts were excised and retrogradely perfused with constant flow on a Langendorff apparatus (37 °C) with Ca^2+-free normal Tyrode’s solution, gassed with 100% O2. Collagenase type II (Worthington Biochemical Co) and protease type XIV (Sigma-Aldrich) were used for enzymatic digestion. […]
Ca^2+ activity was imaged via confocal microscopy (Bio-Rad, Radiance 2100, 40× objective) in the line scan mode (166 lines/s; ex 488 nm, em >505 nm). Ca^2+ sparks were recorded from ventricular cardiomyocytes permeabilized with saponin (50 μg/ml) for 1 min in internal solution containing (in mM) 10 HEPES, 1 EGTA, 1 free MgCl2 (with free [Ca^2+] adjusted to 50 nM using MaxChelator), 120 K-aspartate, 10 reduced glutathione, 5 ATP, 5 phosphocreatine di-Na, creatine phosphokinase 5 U/ml, and dextran (MW: 40,000) 8% at pH 7.20. […] Ca^2+ spark parameters were analyzed over a 10 s period from each line scan recording. […]

[2] = biological target: T1, human RyR2 (Homo sapiens, UniProt Q92736); assay: [Ca2+]ER load in permeabilized HEK293 cells expressing GFP-hRyR2, mCer-SERCA2a, R-CEPIA1er; format: cell-based; settings: compared to vehicle
T1 construct: expressed in transfected cells; host or cells: HEK293, transient co-transfection with mCer-SERCA2a and R-CEPIA1er
Experimental: The method for measuring of [Ca^2+]ER load-leak balance in HEK293 cells was previously described ([48]). Briefly, HEK293 cells were transiently cotransfected with plasmids encoding GFP-hRyR2, mCer-SERCA2a, and R-CEPIA1er cDNAs. After 48 h of protein expression, transfected cells were used for the confocal experiments. Before each measurement, cells were washed with a solution containing (in mM): 150 K-aspartate, 0.25 MgCl2, 0.1 EGTA, 10 HEPES, pH 7.2. Then, the cellular plasma membranes were permeabilized with 0.005% saponin dissolved in the experimental solution containing (in mM): K-aspartate 100; KCl 15; KH2PO4 5; MgATP 5; EGTA 0.35; CaCl2 0.22; MgCl2 0.75; HEPES 10; dextran (MW: 40,000) 2%, pH 7.2. Free [Ca^2+] and [Mg^2+] were set at 100 nM and 1 mM respectively. After 3 min of saponin incubation, the permeabilized cells were perfused with saponin-free experimental solution.
Changes in [Ca^2+]ER load-leak balance in permeabilized HEK293 cells were monitored using a laser scanning confocal microscope (Radiance 2000 MP, BioRad) equipped with a 40× oil objective lens (N.A. =1.3). […]
Cells were perfused with the experimental solution for 3 min to ensure a steady [Ca^2+]ER signal. […] Fmax was determined upon application of 2 μM ionomycin and 10 mM Ca^2+. Changes in [Ca^2+]ER were calculated according to [Ca^2+]ER = (F−Fmin)/(Fmax−Fmin).

T1 sequence (Q92736 whole entry): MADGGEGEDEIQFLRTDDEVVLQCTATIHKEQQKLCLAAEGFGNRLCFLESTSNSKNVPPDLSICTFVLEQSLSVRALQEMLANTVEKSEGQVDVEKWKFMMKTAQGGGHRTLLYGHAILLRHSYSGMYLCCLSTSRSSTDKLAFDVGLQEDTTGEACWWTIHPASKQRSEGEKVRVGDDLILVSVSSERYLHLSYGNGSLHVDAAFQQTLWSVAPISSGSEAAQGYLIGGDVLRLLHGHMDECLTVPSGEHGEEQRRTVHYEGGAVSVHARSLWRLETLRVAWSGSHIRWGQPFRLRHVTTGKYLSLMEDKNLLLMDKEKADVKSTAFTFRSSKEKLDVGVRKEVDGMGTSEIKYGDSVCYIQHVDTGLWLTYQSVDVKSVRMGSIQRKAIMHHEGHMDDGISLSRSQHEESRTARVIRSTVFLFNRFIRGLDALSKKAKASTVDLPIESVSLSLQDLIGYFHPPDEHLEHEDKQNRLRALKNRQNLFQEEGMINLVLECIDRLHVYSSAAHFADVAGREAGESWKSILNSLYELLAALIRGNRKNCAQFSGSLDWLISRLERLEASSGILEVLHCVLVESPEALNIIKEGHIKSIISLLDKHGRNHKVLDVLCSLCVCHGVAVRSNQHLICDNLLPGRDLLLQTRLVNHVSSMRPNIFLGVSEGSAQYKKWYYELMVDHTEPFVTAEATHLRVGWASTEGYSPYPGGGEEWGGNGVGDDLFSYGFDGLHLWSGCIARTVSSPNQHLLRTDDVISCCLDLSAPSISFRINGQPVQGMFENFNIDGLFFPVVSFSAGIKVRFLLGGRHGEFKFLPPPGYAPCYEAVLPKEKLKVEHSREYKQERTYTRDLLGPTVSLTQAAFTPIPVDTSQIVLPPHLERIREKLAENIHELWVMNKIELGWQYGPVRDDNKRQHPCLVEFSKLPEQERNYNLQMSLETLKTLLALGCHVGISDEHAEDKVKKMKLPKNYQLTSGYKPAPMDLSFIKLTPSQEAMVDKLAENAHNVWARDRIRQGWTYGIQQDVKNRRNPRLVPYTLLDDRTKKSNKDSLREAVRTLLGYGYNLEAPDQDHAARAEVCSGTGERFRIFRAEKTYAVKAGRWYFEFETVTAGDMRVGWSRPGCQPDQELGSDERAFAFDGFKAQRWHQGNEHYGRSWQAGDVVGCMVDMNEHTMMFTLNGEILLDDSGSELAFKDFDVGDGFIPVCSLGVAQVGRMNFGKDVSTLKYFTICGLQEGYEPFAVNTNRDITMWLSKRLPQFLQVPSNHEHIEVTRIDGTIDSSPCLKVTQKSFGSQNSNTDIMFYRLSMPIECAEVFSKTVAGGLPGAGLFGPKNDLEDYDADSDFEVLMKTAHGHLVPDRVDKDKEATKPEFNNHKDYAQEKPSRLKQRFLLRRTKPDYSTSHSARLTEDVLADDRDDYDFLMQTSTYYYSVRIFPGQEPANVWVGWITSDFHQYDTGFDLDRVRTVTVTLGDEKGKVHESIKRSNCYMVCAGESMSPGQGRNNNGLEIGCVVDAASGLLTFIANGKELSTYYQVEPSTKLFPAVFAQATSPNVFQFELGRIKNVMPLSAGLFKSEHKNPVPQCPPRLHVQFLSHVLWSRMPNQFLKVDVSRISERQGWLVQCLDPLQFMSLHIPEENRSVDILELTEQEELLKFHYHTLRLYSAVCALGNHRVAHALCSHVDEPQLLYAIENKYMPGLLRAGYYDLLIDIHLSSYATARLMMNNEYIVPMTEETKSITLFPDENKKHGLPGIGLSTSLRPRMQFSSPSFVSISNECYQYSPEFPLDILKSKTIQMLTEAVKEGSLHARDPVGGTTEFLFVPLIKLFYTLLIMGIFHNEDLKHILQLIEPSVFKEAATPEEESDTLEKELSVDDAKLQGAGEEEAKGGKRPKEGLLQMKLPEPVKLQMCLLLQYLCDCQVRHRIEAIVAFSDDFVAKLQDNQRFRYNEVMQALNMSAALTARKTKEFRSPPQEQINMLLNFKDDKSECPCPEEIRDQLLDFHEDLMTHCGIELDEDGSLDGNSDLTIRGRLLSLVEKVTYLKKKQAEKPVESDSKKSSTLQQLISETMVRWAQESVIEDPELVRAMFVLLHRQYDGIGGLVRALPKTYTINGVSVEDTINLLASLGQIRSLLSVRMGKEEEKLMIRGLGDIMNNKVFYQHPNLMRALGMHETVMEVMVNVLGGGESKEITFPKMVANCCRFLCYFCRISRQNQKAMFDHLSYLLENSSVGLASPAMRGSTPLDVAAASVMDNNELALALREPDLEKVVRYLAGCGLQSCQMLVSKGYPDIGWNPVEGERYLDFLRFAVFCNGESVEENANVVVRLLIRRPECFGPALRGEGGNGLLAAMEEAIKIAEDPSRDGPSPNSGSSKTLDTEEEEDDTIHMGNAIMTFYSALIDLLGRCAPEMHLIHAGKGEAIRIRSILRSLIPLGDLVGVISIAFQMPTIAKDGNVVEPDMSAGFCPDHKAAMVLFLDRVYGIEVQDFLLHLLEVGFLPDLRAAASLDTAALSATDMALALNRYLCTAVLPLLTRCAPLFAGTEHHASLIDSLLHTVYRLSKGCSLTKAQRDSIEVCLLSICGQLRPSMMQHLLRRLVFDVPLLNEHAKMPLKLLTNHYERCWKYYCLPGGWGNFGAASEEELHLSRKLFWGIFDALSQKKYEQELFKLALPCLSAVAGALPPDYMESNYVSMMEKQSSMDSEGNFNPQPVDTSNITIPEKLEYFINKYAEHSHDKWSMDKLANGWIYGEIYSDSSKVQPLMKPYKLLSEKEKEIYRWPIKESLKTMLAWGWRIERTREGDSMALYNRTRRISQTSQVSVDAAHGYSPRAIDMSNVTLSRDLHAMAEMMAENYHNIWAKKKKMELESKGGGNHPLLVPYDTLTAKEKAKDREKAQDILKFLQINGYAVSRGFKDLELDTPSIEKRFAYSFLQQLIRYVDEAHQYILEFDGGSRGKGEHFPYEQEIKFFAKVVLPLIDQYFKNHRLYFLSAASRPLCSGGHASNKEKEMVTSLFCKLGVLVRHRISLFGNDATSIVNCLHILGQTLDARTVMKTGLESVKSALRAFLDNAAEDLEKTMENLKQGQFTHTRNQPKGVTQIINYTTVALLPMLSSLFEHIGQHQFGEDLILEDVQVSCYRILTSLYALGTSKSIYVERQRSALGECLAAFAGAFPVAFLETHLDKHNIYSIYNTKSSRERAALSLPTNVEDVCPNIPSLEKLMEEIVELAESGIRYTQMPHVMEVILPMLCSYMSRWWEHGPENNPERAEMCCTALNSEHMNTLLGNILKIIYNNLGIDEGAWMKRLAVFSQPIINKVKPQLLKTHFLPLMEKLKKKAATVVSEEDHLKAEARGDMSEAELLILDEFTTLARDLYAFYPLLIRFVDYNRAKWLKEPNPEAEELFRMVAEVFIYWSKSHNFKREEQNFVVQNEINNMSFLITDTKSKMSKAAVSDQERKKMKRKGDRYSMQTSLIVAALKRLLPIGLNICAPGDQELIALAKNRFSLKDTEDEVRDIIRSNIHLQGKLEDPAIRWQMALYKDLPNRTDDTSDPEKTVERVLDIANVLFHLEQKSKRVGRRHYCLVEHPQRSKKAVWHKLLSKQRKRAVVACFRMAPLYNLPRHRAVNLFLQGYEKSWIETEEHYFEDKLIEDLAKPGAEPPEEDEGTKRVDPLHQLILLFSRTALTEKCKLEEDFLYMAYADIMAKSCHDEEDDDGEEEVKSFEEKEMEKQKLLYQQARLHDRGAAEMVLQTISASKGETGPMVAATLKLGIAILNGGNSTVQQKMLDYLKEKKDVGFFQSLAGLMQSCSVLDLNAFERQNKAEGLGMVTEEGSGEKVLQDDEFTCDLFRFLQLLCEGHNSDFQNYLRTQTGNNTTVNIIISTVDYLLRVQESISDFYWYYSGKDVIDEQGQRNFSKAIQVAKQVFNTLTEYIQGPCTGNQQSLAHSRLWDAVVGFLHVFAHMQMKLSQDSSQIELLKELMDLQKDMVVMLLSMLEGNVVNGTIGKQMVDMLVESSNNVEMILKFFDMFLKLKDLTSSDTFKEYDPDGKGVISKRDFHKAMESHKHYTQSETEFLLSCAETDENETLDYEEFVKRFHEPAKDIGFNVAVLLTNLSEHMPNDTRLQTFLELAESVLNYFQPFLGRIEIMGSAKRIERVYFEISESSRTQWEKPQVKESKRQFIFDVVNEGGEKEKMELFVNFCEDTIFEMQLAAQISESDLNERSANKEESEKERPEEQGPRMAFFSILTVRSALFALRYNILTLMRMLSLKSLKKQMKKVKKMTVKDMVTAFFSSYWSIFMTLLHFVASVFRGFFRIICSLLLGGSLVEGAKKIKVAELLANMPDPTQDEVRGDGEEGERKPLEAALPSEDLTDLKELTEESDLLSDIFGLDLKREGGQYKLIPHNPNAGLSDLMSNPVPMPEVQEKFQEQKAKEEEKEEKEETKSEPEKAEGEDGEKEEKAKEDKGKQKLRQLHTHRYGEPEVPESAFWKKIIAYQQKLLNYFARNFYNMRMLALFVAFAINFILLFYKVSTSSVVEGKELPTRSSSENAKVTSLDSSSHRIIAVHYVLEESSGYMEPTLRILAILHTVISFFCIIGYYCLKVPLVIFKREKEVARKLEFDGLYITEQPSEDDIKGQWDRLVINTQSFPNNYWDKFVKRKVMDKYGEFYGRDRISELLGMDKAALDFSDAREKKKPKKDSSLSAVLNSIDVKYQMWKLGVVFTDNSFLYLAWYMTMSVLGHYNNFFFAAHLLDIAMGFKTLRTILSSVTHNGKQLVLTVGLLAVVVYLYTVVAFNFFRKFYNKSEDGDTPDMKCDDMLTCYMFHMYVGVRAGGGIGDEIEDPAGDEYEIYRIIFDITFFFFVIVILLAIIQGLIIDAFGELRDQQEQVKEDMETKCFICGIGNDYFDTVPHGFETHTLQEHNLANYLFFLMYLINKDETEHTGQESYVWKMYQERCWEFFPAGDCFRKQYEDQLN

CC(=O)O[C@H]1C[C@@]2(C)[C@@H](C[C@@H](O)[C@H]3[C@@]4(C)CC[C@@H](O)[C@@H](C)[C@@H]4CC[C@@]32C)/C1=C(\CCC=C(C)C)C(=O)O [FA, (2Z)-2-[(3R,4S,5S,8S,9S,10S,11R,13R,14S,16S)-16-acetyloxy-3,11-dihydroxy-4,8,10,14-tetramethyl-2,3,4,5,6,7,9,11,12,13,15,16-dodecahydro-1H-cyclopenta[a]phenanthren-17-ylidene]-6-methylhept-5-enoic acid]
cardiomyocytes with arrhythmogenic Ca2+ events (total paired measures) ([1]; FA across all concentrations tested (0.01–10 μM), 6 min): 10 of 12 | Ca2+ transient amplitudes ([1]; even at very low [FA] (0.01 μM), pacing 1 Hz): some diminution | [Ca2+]ER increase ([2]; 5 μM FA): 94 ± 17% | [Ca2+]ER decrease ([2]; 10 μM FA): 24 ± 8%

Reference: publication PMC8689225, “Cardiac ryanodine receptor N-terminal region biosensors identify novel inhibitors via FRET-based high-throughput screening” (The Journal of Biological Chemistry, 2021)
